{"source": "patent US20050143453A1", "about": "“Selective preventing and therapeutic agents for progressive lesion after organic damage” (priority 2000, published 2005)", "key": {"[1]": {"assay": "Acute and chronic toxicity tests (Test Example 5)", "format": "in vivo", "conditions": "subcutaneously 30 mg/kg/day for ten days", "method": "Acute and Chronic Toxicity Tests\nToxicity test of benzyl 2-chloro-5-oxotetrahydrofuran-2-carboxylate represented by the formula (6-1) manufactured in Example 8 and ethyl 2-ketoglutarate represented by the formula (9-1) was carried out."}, "[2]": {"test_system": "induction of effector macrophage by contact of human PBMC with lipopolysaccharide", "assay": "SPFC production by LPS stimulation (Test Example 1)", "format": "cell-based", "method": "A suppressive effect of the test compound to effector macrophage induction was investigated in vitro by an induction and production system of spontaneous plaque-forming cell (SPEC) mentioned in M. Ishibashi, S. Jiang, Y. Kokado, S. Takahara, T. Sonoda: Immunopharmacologic effects of immunosuppressive agents explored by a new effector generation assay. Transplant Proc., 21: 1854-1858, 1989.\nHeparin-added peripheral blood (40 ml) was collected from a healthy person and the same amount of EDTA-added physiological saline was added. PBMC were obtained by a specific gravity centrifugal method using Ficoll-Hypaque (manufactured by Pharmacia Fine Chemicals). Self-plasma was added thereto and allowed to stand at 37° C. for 10 minutes and platelets were removed by a low-speed centrifugal separation. RPMI 1640 liquid containing 15 μg/ml of gentamicin and 2 mM L-glutamine was used for washing the PBMC. Concentration of the PBMC was adjusted to 2×10^6 cells/ml using the same liquid.\nEach 200 μl of a solution containing 2×10^6 PBMC/ml prepared in the step 1 were added to each well of a micro test plate, lipopolysaccharide (hereinafter, abbreviated as LPS) was diluted with the RPMI 1640 liquid to make the final concentration 80 μg/ml and the said LPS solution was added to each well of the 200 μl-micro test plate. Further, each 50 μl of human serum of type AB were added so as to make the concentration 10% by weight. Two such micro test plates were prepared.\nAfter that, to the above two micro test plates was added a solution where the test compound was diluted with 1% by weight of DMSO so as to make the concentration of the test compound 1 μM. Similarly were prepared each two micro test plates where the final concentrations of the test compound were 0.1 μM, 0.01 μM and 0.001 μM.\nThe culture liquid prepared as such was incubated for 6 days at 37° C. in 5% CO2.\nThe effector macrophage induced after the incubation was all recovered using a rubber-policeman (spatula made of rubber). A Hanks solution containing 5 μg/ml of gentamicin was used for washing and, using the said solution, there was prepared a solution where the concentration of the induced effector macrophage was 2×10^6 per ml.\nWith regard to autologous erythrocytes, those which were preserved at 4° C. in a phosphate physiological saline (hereinafter, abbreviated as PBS) to which 0.1% by weight of AB serum and autologous erythrocytes obtained from PBMC separation were used were used. The preserved autologous erythrocytes were washed for three times with a Hanks solution to which no serum was added and made into a solution of 4% by weight concentration using the said Hanks solution. Poly-L-lysine was added to a Terasaki plate and washed with PBS every 20 minutes at 37° C., the above-mentioned autologous erythrocyte solution was added thereto immediately, the mixture was allowed to stand at 37° C. for 30 minutes and the erythrocytes which were not adhered to the plate were removed to prepare a Terasaki plate to which self-erythrocytes in a monolayer were adhered.\nA Hanks solution (4 μl) was added to the said Terasaki plate, 4 μl of a solution containing the induced effector macrophage obtained in the step 3 were added thereto and the mixture was allowed to stand at 37° C. for 2 hours. After completion of the reaction, it was fixed by formalin. Numbers of the produced SPFC which were adhered or phagocytized were measured.\nA mean SPFC production number was calculated from the measured values of SPFC production when the concentration of the test compound was the same. SPFC production number per 1×10^6 of the induced effector macrophage was calculated and, from the recovered induced effector macrophage numbers, total SPFC production amount (S2) was calculated.\nAs a control, no test compound was added and the same operation as above was carried out to calculate the total SPFC production amount (S1). […]"}, "[3]": {"test_system": "induction of effector macrophage by contact of human PBMC with mitomycin-treated human PBMC (allo-MLC)", "assay": "SPFC production by allo-MLC stimulation (Test Example 2)", "format": "cell-based"}, "[4]": {"test_system": "kidney of chronic puromycin nephrosis rat", "assay": "Puromycin chronic nephrosis model in rat (CPN, Test Example 4)", "format": "in vivo", "parameters": "key to Suppressive Effect to Glomerular Lesion / Suppressive Effect to Lesion of Tubulointerstitial Tissue: ∘: available; Δ: somewhat available; x: not available", "method": "Evaluation Using Puromycin Chronic Nephrosis Model in Rat\nMale SD rat of 8 weeks age of about 250 g was used and […] of puromycin were intravenously administered once according to a method of Diamond, et al. (J. R. Diamond, I. Pesek, S. Ruggeri, M. J. Karnovsky: Essential fatty acid deficiency during acute puromycin nephrosis ameliorates late renal injury. Am. J. Physiol, 257: F798˜F807, 1989). There was induced a chronic puromycin nephrosis rat where albuminuria increased from about tenth to twelfth week. After eighth week from administration of puromycin, each of compound (9-1) and compound (6-1) was subcutaneously injected at the dose of 30 mg/kg/day everyday until the 22nd week.\nAs a functional evaluation of kidney, albumin in urine was measured every week using a kit for the measurement of albumin. On the 22nd week, the rat was killed and anatomized to observe functional and morphological changes of kidney."}, "[5]": {"conditions": "30 mg/kg/day subcutaneously from 8th to 22nd week after puromycin"}}, "note": "Like-named read-outs stand apart in the source and are kept apart here."}
{"smiles": "O=C1CCC(Cl)(C(=O)OCc2ccccc2)O1", "note": "(centres unmarked) [(6-1), Benzyl 2-chloro-5-oxotetrahydrofuran-2-carboxylate]", "values": [{"measurement": "toxicity finding", "setting": "[1]", "value": "an increase in weights of the liver and the spleen in a light degree"}, {"measurement": "IC50", "setting": "[2]; 144 h, human PBMC with LPS 80 μg/ml, incubated 6 days, Table 1, read-out: SPFC Production Inhibiting Concentration by LPS Stimulation (μM: IC50)", "value": 0.001, "unit": "µM"}, {"measurement": "IC50", "setting": "[2]; Homo sapiens, Table 5, read-out: Inhibiting Concentration for SPEC Production by LPS Stimulation (μM: IC50)", "value": 0.001, "unit": "µM"}, {"measurement": "IC50", "setting": "[3]; 144 h, human PBMC with mitomycin-treated human PBMC, incubated 6 days, Table 1, read-out: SPFC Production Inhibiting Concentration by all-MLC Stimulation (μM: IC50)", "value": "> 1", "unit": "µM"}, {"measurement": "IC50", "setting": "[3]; Homo sapiens, Table 5, read-out: Inhibiting Concentration for SPEC Production by allo-MLC Stimulation (μM: IC50)", "value": "> 1", "unit": "µM"}, {"measurement": "functional group (selective suppression of SPFC production by allo-MLC or LPS stimulation)", "setting": "[3]; summary of Table 1", "value": "group II"}, {"measurement": "suppression of glomerular lesion", "setting": "[4]; 30 mg/kg/day subcutaneously", "value": "well suppressed"}, {"measurement": "Rate of Cases where Glomerular Lesion was Suppressed", "setting": "[4]; [5]", "value": "67% (4/6)"}, {"measurement": "Rate of Cases where Lesion of Tubulointerstitial Tissue was Suppressed", "setting": "[4]; [5]", "value": "17% (1/6)"}, {"measurement": "Suppressive Effect to Glomerular Lesion", "setting": "[4]; Experimental Model of Rat: CPN", "value": "∘"}, {"measurement": "Suppressive Effect to Lesion of Tubulointerstitial Tissue", "setting": "[4]; Experimental Model of Rat: CPN", "value": "x"}]}
